Drawing on publication PMC3023844 (Planta medica, 2010), this text covers IC50 for three compounds.

Like-named read-outs stand apart in the source and are kept apart here.

By IC50 is commonly meant the concentration that inhibits the measured activity by half.

The test system of one data set is CYP3A. Conditions: read-out: IC50 or Ki values determined previously; CYP3A inhibitors in grapefruit juice; cited from earlier work.
Data set [1] deals with T1, CYP3A (intestinal) (Homo sapiens, UniProt P08684). The data set is described as follows: in vitro. Particulars: microsomes, pH 7.4, IC50, HIM as the enzyme source.
Data set [2] addresses recombinant CYP3A4 (rCYP3A4) (Homo sapiens, UniProt P08684). Put plainly: IC50 of triterpenes for midazolam 1′-hydroxylation using recombinant CYP3A4.
For data set [3], the target named is T1, CYP3A (intestinal). Conditions: microsomes, pH 7.4.

Regarding `CC(=CCOc1c2ccoc2cc2oc(=O)ccc12)CCC(O)C(C)(C)O` (centres unmarked) [6′,7′-dihydroxybergamottin], the IC50 in the data set on CYP3A is 1 to 5 µM.

`C[C@H]1[C@H](C)CC[C@]2(C(=O)O)CC[C@]3(C)C(=CC[C@@H]4[C@@]5(C)C[C@@H](O)[C@H](O)C(C)(C)[C@@H]5CC[C@]43C)[C@H]12` [Corosolic acid (3), 2α,3β-dihydroxyurs-12-en-28-oic acid]: the values for the IC50 (on CYP3A (intestinal) [1]; in data set [2]) were 8.8 ± 0.9 µM and 4.3 ± 0.3 µM, respectively. `CC1(C)CC[C@]2(C(=O)O)CC[C@]3(C)C(=CC[C@@H]4[C@@]5(C)C[C@@H](O)[C@H](O)C(C)(C)[C@@H]5CC[C@]43C)[C@@H]2C1` [Maslinic acid (2), 2α,3β-dihydroxyolean-12-en-28-oic acid]: the values for the IC50 (in data set [2]; against CYP3A (intestinal) [3]) were 2.8 ± 0.2 µM and 7.4 ± 0.5 µM, respectively.
